Numbers after ± are expanded uncertainties.
Details: for viscosity: 101.33 kPa, Liquid, Falling or rolling sphere viscometry

In the case of `Cl.Cn1ccnc1` [1-methylimidazolium chloride], the viscosity (348.15 K) is reported as 108.86 ± 3.6 mPa·s, the viscosity (351.15 K) is reported as 92.99 ± 2.8 mPa·s and the viscosity (353.15 K) is reported as 84.17 ± 2.3 mPa·s. For the same compound, the viscosity (358.15 K) was 66.28 ± 1.6 mPa·s and the Normal melting temperature (Crystal, DTA) was 74.16 ± 2 °C.
